According to patent US20250353841A1 (BIOGEN MA INC., priority 2022, published 2025):

tested on: mutant Huntington (HTT) protein; experiment: HTT Mutant HTRF iPSC assay (mHTT protein lowering); type: cell-based; details: human iPSC derived from a HTT patient with a poly-Q49 mutation

| Structure (SMILES) | IC50 [nM] |
| --- | --- |
| Cc1cn2nc(-c3cc(F)c4nc(NC(=O)C5CN(C6CCC6)C5)cn4c3)cc(C)c2n1 [Compound 263, 1-cyclobutyl-N-(6-(2,8-dimethylimidazo[1,2-b]pyridazin-6-yl)-8-fluoroimidazo[1,2-a]pyridin-2-yl)azetidine-3-carboxamide] | < 100 |
| Cc1cn2nc(-c3cc(F)c4nc(NC(=O)C5CN(C6CC6)C5)cn4c3)cc(C)c2n1 [Compound 265, 1-cyclopropyl-N-(6-(2,8-dimethylimidazo[1,2-b]pyridazin-6-yl)-8-fluoroimidazo[1,2-a]pyridin-2-yl)azetidine-3-carboxamide] | < 100 |
| Cc1cn2nc(-c3cc(F)c4nc(NC(=O)C5CN(CCF)C5)cn4c3)cc(C)c2n1 [Compound 266, N-(6-(2,8-dimethylimidazo[1,2-b]pyridazin-6-yl)-8-fluoroimidazo[1,2-a]pyridin-2-yl)-1-(2-fluoroethyl)azetidine-3-carboxamide] | < 100 |
| Cc1cn2nc(-c3cc(F)c4nc(NC(=O)C5CN(CC(F)F)C5)cn4c3)cc(C)c2n1 [Compound 267, 1-(2,2-difluoroethyl)-N-(6-(2,8-dimethylimidazo[1,2-b]pyridazin-6-yl)-8-fluoroimidazo[1,2-a]pyridin-2-yl)azetidine-3-carboxamide] | 100 to 1000 |
| Cc1cn2nc(-c3cc(F)c4nc(NC(=O)C5CCNC6(CC6)C5)cn4c3)cc(C)c2n1 (stereo not drawn) [Compound 268, N-(6-(2,8-dimethylimidazo[1,2-b]pyridazin-6-yl)-8-fluoroimidazo[1,2-a]pyridin-2-yl)-4-azaspiro[2.5]octane-7-carboxamide] | < 100 |
| Cc1cn2nc(-c3cc(F)c4nc(NC(=O)C5CCN(C)CC5)cn4c3)cc(C)c2n1 [Compound 269, N-(6-(2,8-dimethylimidazo[1,2-b]pyridazin-6-yl)-8-fluoroimidazo[1,2-a]pyridin-2-yl)-1-methylpiperidine-4-carboxamide] | < 100 |
| Cc1cn2nc(-c3cc(F)c4nc(NC(=O)C5(F)CNC5)cn4c3)cc(C)c2n1 [Compound 270, N-(6-(2,8-dimethylimidazo[1,2-b]pyridazin-6-yl)-8-fluoroimidazo[1,2-a]pyridin-2-yl)-3-fluoroazetidine-3-carboxamide] | < 100 |
| Cc1cn2nc(-c3cc(F)c4nc(NC(=O)C5CCNC6CC65)cn4c3)cc(C)c2n1 (stereo not drawn) [Compound 271, N-(6-(2,8-dimethylimidazo[1,2-b]pyridazin-6-yl)-8-fluoroimidazo[1,2-a]pyridin-2-yl)-2-azabicyclo[4.1.0] heptane-5-carboxamide] | < 100 |
| Cc1cn2nc(-c3cc(F)c4nc(NC(=O)CC5CCCN5)cn4c3)cc(C)c2n1 (stereo not drawn) [Compound 273, N-(6-(2,8-dimethylimidazo[1,2-b]pyridazin-6-yl)-8-fluoroimidazo[1,2-a]pyridin-2-yl)-2-(pyrrolidin-2-yl)acetamide] | < 100 |
| Cc1cn2nc(-c3cc(F)c4nc(NC(=O)CC5CCCCN5)cn4c3)cc(C)c2n1 (stereo not drawn) [Compound 274, N-(6-(2,8-dimethylimidazo[1,2-b]pyridazin-6-yl)-8-fluoroimidazo[1,2-a]pyridin-2-yl)-2-(piperidin-2-yl)acetamide] | < 100 |
| Cc1cn2nc(-c3cc(F)c4nc(NC(=O)CN5CCCCC5)cn4c3)cc(C)c2n1 [Compound 275, N-(6-(2,8-dimethylimidazo[1,2-b]pyridazin-6-yl)-8-fluoroimidazo[1,2-a]pyridin-2-yl)-2-(piperidin-1-yl)acetamide] | < 100 |
| Cc1cn2nc(-c3cc(F)c4nc(NC(=O)C5CC6(CNC6)C5)cn4c3)cc(C)c2n1 [Compound 276] | 100 to 1000 |
| Cc1cn2nc(-c3cc(F)c4nc(NC(=O)CC5CNC5)cn4c3)cc(C)c2n1 [Compound 281, 2-(azetidin-3-yl)-N-(6-(2,8-dimethylimidazo[1,2-b]pyridazin-6-yl)-8-fluoroimidazo[1,2-a]pyridin-2-yl)acetamide] | < 100 |
| Cc1cn2nc(-c3cc(F)c4nc(NC(=O)C5(C)CN(C6CC6)C5)cn4c3)cc(C)c2n1 [Compound 282, 1-cyclopropyl-N-(6-(2,8-dimethylimidazo[1,2-b]pyridazin-6-yl)-8-fluoroimidazo[1,2-a]pyridin-2-yl)-3-methylazetidine-3-carboxamide] | < 100 |
| Cc1cn2nc(-c3cc(F)c4nc(NC(=O)CC5CCNCC5)cn4c3)cc(C)c2n1 [Compound 284, N-(6-(2,8-dimethylimidazo[1,2-b]pyridazin-6-yl)-8-fluoroimidazo[1,2-a]pyridin-2-yl)-2-(piperidin-4-yl)acetamide] | 100 to 1000 |
| Cc1cn2nc(-c3cc(F)c4nc(NC(=O)C5CN(C6CC6)C5(C)C)cn4c3)cc(C)c2n1 (stereo not drawn) [Compound 285, 1-cyclopropyl-N-(6-(2,8-dimethylimidazo[1,2-b]pyridazin-6-yl)-8-fluoroimidazo[1,2-a]pyridin-2-yl)-2,2-dimethylazetidine-3-carboxamide] | 100 to 1000 |
| Cc1cn2nc(-c3cc(F)c4nc(NC(=O)[C@H]5C[C@H](N(C)C)C5)cn4c3)cc(C)c2n1 [Compound 288, (1r,3r)-3-(dimethylamino)-N-(6-(2,8-dimethylimidazo[1,2-b]pyridazin-6-yl)-8-fluoroimidazo[1,2-a]pyridin-2-yl)cyclobutane-1-carboxamide] | < 100 |

| Structure (SMILES) | IC50 [nM] |
| --- | --- |
| Cc1cn2nc(-c3cc(F)c4nc(NC(=O)[C@H]5C[C@@H](N(C)C)C5)cn4c3)cc(C)c2n1 [Compound 289, (1s,3s)-3-(dimethylamino)-N-(6-(2,8-dimethylimidazo[1,2-b]pyridazin-6-yl)-8-fluoroimidazo[1,2-a]pyridin-2-yl)cyclobutane-1-carboxamide] | < 100 |
| Cc1cn2nc(-c3cc(F)c4nc(NC(=O)C5CN(C(C)C)C5)cn4c3)cc(C(F)F)c2n1 [Compound 290, N-[6-[8-(difluoromethyl)-2-methyl-imidazo[1,2-b]pyridazin-6-yl]-8-fluoro-imidazo[1,2-a]pyridin-2-yl]-1-isopropyl-azetidine-3-carboxamide] | < 100 |
| CC(C)N1CC(C(=O)Nc2cn3cc(-c4cc(F)c5nn(C)cc5c4)cc(F)c3n2)C1 [Compound 291, N-(8-fluoro-6-(7-fluoro-2-methyl-2H-indazol-5-yl)imidazo[1,2-a]pyridin-2-yl)-1-isopropylazetidine-3-carboxamide] | 100 to 1000 |
| Cc1cc(-c2cc(F)c3nc(NC(=O)C4CN(C(C)C)C4)cn3c2)nc2cn(C)nc12 [Compound 292, N-(6-(2,7-dimethyl-2H-pyrazolo[4,3-b]pyridin-5-yl)-8-fluoroimidazo[1,2-a]pyridin-2-yl)-1-isopropylazetidine-3-carboxamide] | < 100 |
| Cc1cn2nc(-c3cc(F)c4nc(NC(=O)C5CNC5)cn4c3)cc(C)c2n1 [Compound 294, N-[6-(2,8-dimethylimidazo[1,2-b]pyridazin-6-yl)-8-fluoro-imidazo[1,2-a]pyridin-2-yl]azetidine-3-carboxamide] | < 100 |
| Cc1cn2nc(-c3cc(F)c4nc(NC(=O)C5CN(C(C)C)C5)cn4c3)cc2c(C)n1 [Compound 295, N-(6-(4,6-dimethylpyrazolo[1,5-a]pyrazin-2-yl)-8-fluoroimidazo[1,2-a]pyridin-2-yl)-1-isopropylazetidine-3-carboxamide] | < 100 |
| COc1cc(-c2cc(F)c3nc(NC(=O)C4CN(C(C)C)C4)cn3c2)nn2nc(C)nc12 [Compound 296, N-(8-fluoro-6-(8-methoxy-2-methyl-[1,2,4]triazolo[1,5-b]pyridazin-6-yl)imidazo[1,2-a]pyridin-2-yl)-1-isopropylazetidine-3-carboxamide] | < 100 |
| Cc1cn2nc(-c3cc(F)c4nc(NC(=O)C5CCN(C)CC5)nn4c3)cc(C)c2n1 [Compound 317, N-(6-(2,8-dimethylimidazo[1,2-b]pyridazin-6-yl)-8-fluoro-[1,2,4]triazolo[1,5-a]pyridin-2-yl)-1-methylpiperidine-4-carboxamide] | 100 to 1000 |
| Cc1cn2nc(-c3cc(F)c4nc(NC(=O)C5CC56CNC6)nn4c3)cc(C)c2n1 (stereo not drawn) [Compound 318] | 1000 to 9000 |
| Cc1cn2nc(-c3cc(F)c4nc(NC(=O)C5CNCC5(C)C)nn4c3)cc(C)c2n1 (stereo not drawn) [Compound 319, N-(6-(2,8-dimethylimidazo[1,2-b]pyridazin-6-yl)-8-fluoro-[1,2,4]triazolo[1,5-a]pyridin-2-yl)-4,4-dimethylpyrrolidine-3-carboxamide] | 1000 to 9000 |
| Cc1cn2nc(-c3cc(F)c4nc(NC(=O)C56CNC(C5)C6)nn4c3)cc(C)c2n1 [Compound 320, N-(6-(2,8-dimethylimidazo[1,2-b]pyridazin-6-yl)-8-fluoro-[1,2,4]triazolo[1,5-a]pyridin-2-yl)-2-azabicyclo[2.1.1]hexane-4-carboxamide] | 1000 to 9000 |
| Cc1cn2nc(-c3cc(F)c4nc(NC(=O)C5CCCCNC5)nn4c3)cc(C)c2n1 (stereo not drawn) [Compound 321, N-(6-(2,8-dimethylimidazo[1,2-b]pyridazin-6-yl)-8-fluoro-[1,2,4]triazolo[1,5-a]pyridin-2-yl)azepane-3-carboxamide] | 100 to 1000 |
| Cc1cn2nc(-c3cc(F)c4nc(NC(=O)C5CCNC(C)C5)nn4c3)cc(C)c2n1 (stereo not drawn) [Compound 322, N-(6-(2,8-dimethylimidazo[1,2-b]pyridazin-6-yl)-8-fluoro-[1,2,4]triazolo[1,5-a]pyridin-2-yl)-2-methylpiperidine-4-carboxamide] | 100 to 1000 |
| Cc1cn2nc(-c3cc(F)c4nc(NC(=O)C5CCNC56CC6)nn4c3)cc(C)c2n1 (stereo not drawn) [Compound 323, N-(6-(2,8-dimethylimidazo[1,2-b]pyridazin-6-yl)-8-fluoro-[1,2,4]triazolo[1,5-a]pyridin-2-yl)-4-azaspiro[2.4]heptane-7-carboxamide] | 100 to 1000 |
| Cc1cn2nc(-c3cc(F)c4nc(NC(=O)C5CN(C(C)C)C5)nn4c3)cc(C)c2n1 [Compound 324, N-[6-(2,8-dimethylimidazo[1,2-b]pyridazin-6-yl)-8-fluoro-[1,2,4]triazolo[1,5-a]pyridin-2-yl]-1-isopropyl-azetidine-3-carboxamide] | 1000 to 9000 |
| Cc1cn2nc(-c3cc(F)c4nc(NC(=O)C5CCN(C)CC5)nn4c3)cc(C)c2n1 [Compound 327, N-(6-(2,8-dimethylimidazo[1,2-b]pyridazin-6-yl)-8-fluoro-[1,2,4]triazolo[1,5-a]pyridin-2-yl)-1-methylpiperidine-4-carboxamide] | < 100 |
